# From patent publication EP2607478A1, “Phenanthroline treated MSC” (Universiteit Twente, priority 2011, dated 2013)
# Test system: MSCs
# Test: Whole genome expression analysis (Illumina microarray) of treated MSCs
# Assay type: cell-based, Human
# Conditions: DFO versus Bas
# Procedure: MSCs were seeded in T25 flasks at 5000 cells/cm^2 and allowed to attach overnight in proliferation medium. […] After 48 hours, RNA was isolated as described above. From 500 ng of RNA, cRNA was synthesized using the Illumina TotalPrep RNA amplification Kit (Ambion), according to the manufacturer's protocol and the quality of RNA and cRNA was verified on a Bioanalyzer 2100 (Agilent). Microarrays were performed using Illumina HT-12 v4 expression Beadchips, according to the manufacturer's protocol. Briefly, 750 ng of cRNA was hybridized on the array overnight after which the array was washed and blocked. Then, by addition of streptavidin Cy-3 a fluorescent signal was developed. Arrays were scanned on an Illumina iScan reader and raw intensity values were background corrected in GenomeStudio (Illumina). Further data processing and statistical testing were performed with R and Bioconductor statistical software (www.bioconductor.org), using package lumi. Raw intensity values were transformed using variance stabilization and a quantile normalization was performed. A linear modelling approach with empirical Bayesian methods, as implemented in Limma package (54), was applied for differential expression analysis of the resulting probe-level expression values. A gene list, containing only those genes with an absolute 1.5-fold change between different treatments, was uploaded to Ingenuity Pathway Analysis (IPA) software and used for core analysis. Pathways or networks with a p-value of 0.05 were considered statistically significant.
compound,measurement,setting,value
"CC(=O)N(O)CCCCCNC(=O)CCC(=O)N(O)CCCCCNC(=O)CCC(=O)N(O)CCCCCN [DFO, reference compound]",logFC(D142_ DFO - D142_BAS),ProbeID ILMN_1699644,"2,52"
same,logFC(D142_ DFO - D142_BAS) RRAGD,ProbeID ILMN_1699772,"2,43"
same,logFC(D142_ DFO - D142_BAS) QPRT,ProbeID ILMN_1700268,"-2,44"
same,logFC(D142_ DFO - D142_BAS) SULF1,ProbeID ILMN_1702363,"-2,42"
same,logFC(D142_ DFO - D142_BAS) TNFRSF19,ProbeID ILMN_1704154,"-2,00"
same,logFC(D142_ DFO - D142_BAS) SLC6A10P,ProbeID ILMN_1704446,"2,82"
same,logFC(D142_ DFO - D142_BAS) PHGDH,ProbeID ILMN_1704537,"2,18"
same,logFC(D142_ DFO - D142_BAS) ANGPTL4,ProbeID ILMN_1707727,"6,19"
same,logFC(D142_ DFO - D142_BAS) TP53INP1,ProbeID ILMN_1714108,"2,66"
same,logFC(D142_ DFO - D142_BAS) NNMT,ProbeID ILMN_1715508,"-2,16"
same,logFC(D142_ DFO - D142_BAS) NGF,ProbeID ILMN_1716608,"2,73"
same,logFC(D142_ DFO - D142_BAS) C5orf46,ProbeID ILMN_1718866,"2,59"
same,logFC(D142_ DFO - D142_BAS) BNIP3L,ProbeID ILMN_1718961,"2,24"
same,logFC(D142_ DFO - D142_BAS) SLC7A5,ProbeID ILMN_1720373,"3,21"
same,logFC(D142_ DFO - D142_BAS) JMJD1A,ProbeID ILMN_1722532,"2,13"
same,logFC(D142_ DFO - D142_BAS) HK2,ProbeID ILMN_1723486,"2,21"
same,logFC(D142_ DFO - D142_BAS) BNIP3,ProbeID ILMN_1724658,"3,37"
same,logFC(D142_ DFO - D142_BAS) CTHRC1,ProbeID ILMN_1725090,"-2,13"
same,logFC(D142_ DFO - D142_BAS) CA9,ProbeID ILMN_1725139,"3,31"
same,logFC(D142_ DFO - D142_BAS) SLC3A2,ProbeID ILMN_1726456,"2,31"
same,logFC(D142_ DFO - D142_BAS) OLFML3,ProbeID ILMN_1727532,"-2,91"
same,logFC(D142_ DFO - D142_BAS) PRC1,ProbeID ILMN_1728934,"-2,66"
same,logFC(D142_ DFO - D142_BAS) STEAP1,ProbeID ILMN_1733094,"-2,15"
same,logFC(D142_ DFO - D142_BAS) COL12A1,ProbeID ILMN_1733756,"-2,56"
same,logFC(D142_ DFO - D142_BAS) PPP1R3C,ProbeID ILMN_1736670,"2,33"
same,logFC(D142_ DFO - D142_BAS) TMEM119,ProbeID ILMN_1738116,"-3,83"
same,logFC(D142_ DFO - D142_BAS) ULBP1,ProbeID ILMN_1738407,"2,07"
same,logFC(D142_ DFO - D142_BAS) PLAT,ProbeID ILMN_1738742,"2,03"
same,logFC(D142_ DFO - D142_BAS) TUBA1A,ProbeID ILMN_1742981,"-2,06"
same,logFC(D142_ DFO - D142_BAS) EGR2,ProbeID ILMN_1743199,"2,34"
same,logFC(D142_ DFO - D142_BAS) C1QTNF5,ProbeID ILMN_1744487,"-2,69"
same,logFC(D142_ DFO - D142_BAS) ERO1L,ProbeID ILMN_1744963,"3,58"
same,logFC(D142_ DFO - D142_BAS) CEP55,ProbeID ILMN_1747016,"-2,32"
same,logFC(D142_ DFO - D142_BAS) EGLN1,ProbeID ILMN_1749892,"2,28"
same,logFC(D142_ DFO - D142_BAS) IGFBP5,ProbeID ILMN_1750324,"2,71"
same,logFC(D142_ DFO - D142_BAS) SESN2,ProbeID ILMN_1751598,"2,18"
same,logFC(D142_ DFO - D142_BAS) PGK1,ProbeID ILMN_1755749,"2,16"
same,logFC(D142_ DFO - D142_BAS) ALDOC,ProbeID ILMN_1755974,"2,33"
same,logFC(D142_ DFO - D142_BAS) ANKRD37,ProbeID ILMN_1756417,"3,40"
same,logFC(D142_ DFO - D142_BAS) COQ2,ProbeID ILMN_1756572,"-2,03"
same,logFC(D142_ DFO - D142_BAS) NDUFA4L2,ProbeID ILMN_1756573,"5,66"
same,logFC(D142_ DFO - D142_BAS) STC1,ProbeID ILMN_1758164,"3,77"
same,logFC(D142_ DFO - D142_BAS) HIST1H2BD,ProbeID ILMN_1758623,"2,40"
same,logFC(D142_ DFO - D142_BAS) FAM107B,ProbeID ILMN_1758672,"2,18"
same,logFC(D142_ DFO - D142_BAS) LOC441019,ProbeID ILMN_1761281,"2,16"
same,logFC(D142_ DFO - D142_BAS) AK3L1,ProbeID ILMN_1764090,"2,74"
same,logFC(D142_ DFO - D142_BAS) OLFML2B,ProbeID ILMN_1765557,"-3,16"
same,logFC(D142_ DFO - D142_BAS) LOC399942,ProbeID ILMN_1765701,"-2,67"
same,logFC(D142_ DFO - D142_BAS) ENO2,ProbeID ILMN_1765796,"4,08"
